Literature values as cited in PubChem BioAssay AID1259409 (Chemical Carcinogenesis Research Information System (CCRIS), 2018).

Test system: rodent chemically induced tumor inhibition, incidence and multiplicity
Test: CCRIS tumor inhibitor studies
Details: Route [Inhibitor]: ORAL

Q: With `S=C=NCCc1ccccc1` as the compound, how does the “tumour outcome (control, treated, inhibition, significance)” value (Carcinogen: DIETHYLNITROSAMINE, 55-18-5, N-METHYL-N-NITROSOUREA, 684-93-5, N-BUTYL-N-(4-HYDROXYBUTYL)NITROSAMINE, 3817-11-6, DIMETHY, Carcinogen: DIETHYLNITROSAMINE, 55-18-5, N-METHYL-N-NITROSOUREA, 684-93-5, N-BUTYL-N-(4-HYDROXYBUTYL)NITROSAMINE, 3817-11-6, DIMETHY, Dose [Inhibitor]: 0, 0.1% IN THE DIET FOR 30 D BEGINNING 1 DAY PRIOR TO CARCINOGEN TREATMENT (STUDY DURATION: 28 WK), Species: RAT, Strain/Sex: F344/MALE, Target Tissue: Type of Lesion: LARGE INTESTINE: ADENOMA, Dose [Carcinogen]: 100 MG/KG BW DEN ONCE FOLLOWED BY 20 MG/KG BW MNU 4 TIMES AND 0.05% BBN IN DRINKING WATER DURING FIRST 2 WK THEN 40 MG/K, Promoter: NONE USED) read?
A: 27%, 54%, -100%, not significant

Q: And the “tumour outcome (control, treated, inhibition, significance)” value (Carcinogen: DIETHYLNITROSAMINE, 55-18-5, N-METHYL-N-NITROSOUREA, 684-93-5, N-BUTYL-N-(4-HYDROXYBUTYL)NITROSAMINE, 3817-11-6, DIMETHY, Carcinogen: DIETHYLNITROSAMINE, 55-18-5, N-METHYL-N-NITROSOUREA, 684-93-5, N-BUTYL-N-(4-HYDROXYBUTYL)NITROSAMINE, 3817-11-6, DIMETHY, Dose [Inhibitor]: 0, 0.1% IN THE DIET FOR 30 D BEGINNING 1 DAY PRIOR TO CARCINOGEN TREATMENT (STUDY DURATION: 28 WK), Species: RAT, Strain/Sex: F344/MALE, Target Tissue: Type of Lesion: SMALL INTESTINE: CARCINOMA, Dose [Carcinogen]: 100 MG/KG BW DEN ONCE FOLLOWED BY 20 MG/KG BW MNU 4 TIMES AND 0.05% BBN IN DRINKING WATER DURING FIRST 2 WK THEN 40 MG/K, Promoter: NONE USED)?
A: 7%, 23%, -229%, not significant

Q: And the “tumour outcome (control, treated, inhibition, significance)” value (Carcinogen: DIETHYLNITROSAMINE, 55-18-5, N-METHYL-N-NITROSOUREA, 684-93-5, N-BUTYL-N-(4-HYDROXYBUTYL)NITROSAMINE, 3817-11-6, DIMETHY, Carcinogen: DIETHYLNITROSAMINE, 55-18-5, N-METHYL-N-NITROSOUREA, 684-93-5, N-BUTYL-N-(4-HYDROXYBUTYL)NITROSAMINE, 3817-11-6, DIMETHY, Dose [Inhibitor]: 0, 0.1% IN THE DIET FOR 30 D BEGINNING 1 DAY PRIOR TO CARCINOGEN TREATMENT (STUDY DURATION: 28 WK), Species: RAT, Strain/Sex: F344/MALE, Target Tissue: Type of Lesion: THYROID: CARCINOMA, Dose [Carcinogen]: 100 MG/KG BW DEN ONCE FOLLOWED BY 20 MG/KG BW MNU 4 TIMES AND 0.05% BBN IN DRINKING WATER DURING FIRST 2 WK THEN 40 MG/K, Promoter: NONE USED)?
A: 7%, 8%, -14%, not significant

Q: What about the “tumour outcome (control, treated, inhibition, significance)” value (Carcinogen: DIETHYLNITROSAMINE, 55-18-5, N-METHYL-N-NITROSOUREA, 684-93-5, N-BUTYL-N-(4-HYDROXYBUTYL)NITROSAMINE, 3817-11-6, DIMETHY, Carcinogen: DIETHYLNITROSAMINE, 55-18-5, N-METHYL-N-NITROSOUREA, 684-93-5, N-BUTYL-N-(4-HYDROXYBUTYL)NITROSAMINE, 3817-11-6, DIMETHY, Dose [Inhibitor]: 0, 0.1 IN THE DIET FOR 30 D BEGINNING 1 DAY PRIOR TO CARCINOGEN TREATMENT (STUDY DURATION: 28 WK), Species: RAT, Strain/Sex: F344/MALE, Target Tissue: Type of Lesion: SMALL INTESTINE: ADENOMA, Dose [Carcinogen]: 100 MG/KG BW DEN ONCE FOLLOWED BY 20 MG/KG BW MNU 4 TIMES AND 0.05% BBN IN DRINKING WATER DURING FIRST 2 WK THEN 40 MG/K, Promoter: NONE USED) of the same compound?
A: 33%, 31%, 6%, not significant

Q: And the “tumour outcome (control, treated, inhibition, significance)” value (Carcinogen: DIETHYLNITROSAMINE, 55-18-5, N-METHYL-N-NITROSOUREA, 684-93-5, N-BUTYL-N-(4-HYDROXYBUTYL)NITROSAMINE, 3817-11-6, DIMETHY, Carcinogen: DIETHYLNITROSAMINE, 55-18-5, N-METHYL-N-NITROSOUREA, 684-93-5, N-BUTYL-N-(4-HYDROXYBUTYL)NITROSAMINE, 3817-11-6, DIMETHY, Dose [Inhibitor]: 0.1% IN THE DIET FOR 30 D BEGINNING 1 DAY PRIOR TO CARCINOGEN TREATMENT (STUDY DURATION: 28 WK), Species: RAT, Strain/Sex: F344/MALE, Target Tissue: Type of Lesion: URINARY BLADDER: CARCINOMA, Dose [Carcinogen]: 100 MG/KG BW DEN ONCE FOLLOWED BY 20 MG/KG BW MNU 4 TIMES AND 0.05% BBN IN DRINKING WATER DURING FIRST 2 WK THEN 40 MG/K, Promoter: NONE USED)?
A: 7%, 0%, 100%, not significant

Q: And the “tumour outcome (control, treated, inhibition, significance)” value (Carcinogen: DIETHYLNITROSAMINE, 55-18-5, N-METHYL-N-NITRSOUREA, 684-93-5, N-BUTYL-N-(4-HYDROXYBUTYL)NITROSAMINE, 3817-11-6, DIMETHYL, Carcinogen: DIETHYLNITROSAMINE, 55-18-5, N-METHYL-N-NITRSOUREA, 684-93-5, N-BUTYL-N-(4-HYDROXYBUTYL)NITROSAMINE, 3817-11-6, DIMETHYL, Dose [Inhibitor]: 0, 0.1% IN THE DIET FOR 30 D BEGINNING 1 DAY PRIOR TO CARCINOGEN TREATMENT (STUDY DURATION: 28 WK), Species: RAT, Strain/Sex: F344/MALE, Target Tissue: Type of Lesion: URINARY BLADDER: PAPILLOMA, Dose [Carcinogen]: 100 MG/KG BW DEN ONCE FOLLOWED BY 20 MG/KG BW MNU 4 TIMES AND 0.05% BBN IN DRINKING WATER DURING FIRST 2 WK THEN 40 MG/K, Promoter: NONE USED)?
A: 7%, 0%, 100%, not significant

Q: And the “tumour outcome (control, treated, inhibition, significance)” value (Carcinogen: N-BUTYL-N(4-HYDROXYBUTYL)NITROSAMINE (3817-11-6), Dose [Inhibitor]: 0.5 UMOL/G IN DIET BEGINNING 1 WK BEFORE CARCINOGEN EXPOSURE (STUDY DURATION: 16 WK), Species: RAT, Strain/Sex: WISTAR/MALE, Target Tissue: Type of Lesion: URINARY BLADDER: PAPILLOMA, Dose [Carcinogen]: 0.025% IN DRINKING WATER FOR 15 WK, Promoter: NONE USED)?
A: 38/40 (95%), 26/30 (87%), 8%, not significant

Q: What about the “tumour outcome (control, treated, inhibition, significance)” value (Carcinogen: N-BUTYL-N(4-HYDROXYBUTYL)NITROSAMINE (3817-11-6), Dose [Inhibitor]: 0.5 UMOL/G IN DIET BEGINNING 1 WK BEFORE CARCINOGEN EXPOSURE (STUDY DURATION: 16 WK), Species: RAT, Strain/Sex: WISTAR/MALE, Target Tissue: Type of Lesion: URINARY BLADDER: TRANSITIONAL CELL CARCINOMA, Dose [Carcinogen]: 0.025% IN DRINKING WATER FOR 15 WK, Promoter: NONE USED) of the same compound?
A: 4/40 (10%), 4/30 (13%), -30%, not significant

Q: What about the “tumour outcome (control, treated, inhibition, significance)” value (Carcinogen: N-NITROSOBENZYLMETHYLAMINE, 937-40-6, Dose [Inhibitor]: 0, 3 UMOL/G DIET BEGINNING 2 WK PRIOR TO CARCINOGEN TREATMENT AND CONTINUING FOR 8 WK POST CARCINOGEN TREATMENT (STUDY D, Species: RAT, Strain/Sex: F344/MALE, Target Tissue: Type of Lesion: ESOPHAGUS: TUMOR, Dose [Carcinogen]: 0.5 MG/KG 1/WK FOR 15 WK, Promoter: NONE USED) of the same compound?
A: 100%, 13%, 87%, not calculated

Q: And the “tumour outcome (control, treated, inhibition, significance)” value (Carcinogen: N-NITROSOBENZYLMETHYLAMINE, 937-40-6, Dose [Inhibitor]: 0, 3 UMOL/G IN DIET BEGINNING 2 WK PRIOR TO CARCINOGEN TREATMENT AND CONTINUING FOR DURATION OF STUDY (STUDY DURATION: 2, Species: RAT, Strain/Sex: F344/MALE, Target Tissue: Type of Lesion: ESOPHAGUS: TUMORS, Dose [Carcinogen]: 0.5 MG/KG BW IN 0.1 ML OF DMSO 1/WK FOR 15 WK, Promoter: NONE USED)?
A: 100%, 13%, 87%, not calculated

Q: And the “tumour outcome (control, treated, inhibition, significance)” value (Carcinogen: N-NITROSOBENZYLMETHYLAMINE, 937-40-6, Dose [Inhibitor]: 0, 6 UMOL/G DIET BEGINNING 2 WK PRIOR TO CARCINOGEN TREATMENT AND CONTINUING FOR 8 WK POST CARCINOGEN TREATMENT (STUDY D, Species: RAT, Strain/Sex: F344/MALE, Target Tissue: Type of Lesion: ESOPHAGUS: TUMOR, Dose [Carcinogen]: 0.5 MG/KG 1/WK FOR 15 WK, Promoter: NONE USED)?
A: 100%, 0%, 100%, not calculated

Q: What about the “tumour outcome (control, treated, inhibition, significance)” value (Carcinogen: N-NITROSOBENZYLMETHYLAMINE, 937-40-6, Dose [Inhibitor]: 0, 6 UMOL/G IN DIET BEGINNING 2 WK PRIOR TO CARCINOGEN TREATMENT AND CONTINUING FOR DURATION OF STUDY (STUDY DURATION: 2, Species: RAT, Strain/Sex: F344/MALE, Target Tissue: Type of Lesion: ESOPHAGUS: TUMORS, Dose [Carcinogen]: 0.5 MG/KG BW IN 0.1 ML OF DMSO 1/WK FOR 15 WK, Promoter: NONE USED) of the same compound?
A: 15/15 (100%), 0/15 (0%), 100%, not calculated

Q: What about the “tumour outcome (control, treated, inhibition, significance)” value (Carcinogen: N-NITROSOBIS(2-OXOPROPYL)AMINE [60599-38-4], Dose [Inhibitor]: 3 UMOL IN DIET FOR 49 WK BEGINNING 2 WK POST LAST CARCINOGEN DOSE (STUDY DURATION: 52 WK), Species: HAMSTER, Strain/Sex: SYRIAN/FEMALE, Target Tissue: Type of Lesion: LIVER: CHOLANGIOCELLAR ADENOMA, Dose [Carcinogen]: 20 MG/KG BW 1X/WK FOR 2 WK (STUDY DURATION: 52 WK), Promoter: NONE) of the same compound?
A: 19/25 (76.0%), 20/28 (71.4%), 6%, not significant

Q: What about the “tumour outcome (control, treated, inhibition, significance)” value (Carcinogen: N-NITROSOBIS(2-OXOPROPYL)AMINE [60599-38-4], Dose [Inhibitor]: 3 UMOL IN DIET FOR 49 WK BEGINNING 2 WK POST LAST CARCINOGEN DOSE (STUDY DURATION: 52 WK), Species: HAMSTER, Strain/Sex: SYRIAN/FEMALE, Target Tissue: Type of Lesion: LIVER: CHOLANGIOCELLULAR ADENOMA, Dose [Carcinogen]: 20 MG/KG BW 1X/WK FOR 2 WK (STUDY DURATION: 52 WK), Promoter: NONE) of the same compound?
A: 19/25 (76.0%), 23/28 (82.1%), -8%, not significant

Q: And the “tumour outcome (control, treated, inhibition, significance)” value (Carcinogen: N-NITROSOBIS(2-OXOPROPYL)AMINE [60599-38-4], Dose [Inhibitor]: 3 UMOL IN DIET FOR 49 WK BEGINNING 2 WK POST LAST CARCINOGEN DOSE (STUDY DURATION: 52 WK), Species: HAMSTER, Strain/Sex: SYRIAN/FEMALE, Target Tissue: Type of Lesion: LIVER: HEPATOCELLULAR ADENOMA, Dose [Carcinogen]: 20 MG/KG BW 1X/WK FOR 2 WK (STUDY DURATION: 52 WK), Promoter: NONE)?
A: 18/25 (72.0%), 16/28 (57.1%), 21%, not significant
